Test results reported in patent US9919002B2, “Methods and constructs for compound delivery” (North Carolina State University, priority 2013, dated 2018).

Columns and labels:
[1] = system: MDA-MB-231 tumor xenograft; assay: In vivo antitumor efficacy of Gelipo formulations; conditions: i.v. 2 mg/kg Dox every other day for 12 days
Protocol: All animals were treated in accordance with the Guide for Care and Use of Laboratory Animals, approved by local committee. The female nude mice were subcutaneously inoculated in the back with MDA-MB-231 cells (1×10^7 cells/mouse) for the construction of the tumor xenograft model. The tumor size was monitored by a fine caliper and the tumor volume (V) was calculated as V=L×W^2/2, where L and W were the length and width of the tumor, respectively.
When the tumor volume reached to 50 mm^3, the mice were weighed, randomly divided into 4 groups, and intravenously administrated with the Dox solution (2 mg/kg), Dox-Gelipo (2 mg/kg), Dox/TRAIL-Gelipo (2 mg/kg Dox, 0.04 mg/kg TRAIL) and saline every other day for 12 days. The tumor size and body weight of the mice were measured at the meantime. At Day 14, the tumor were harvested from the mice after euthanasia, washed by saline thrice and then fixed in 10% neutral buffered formalin (NBF). For HE staining, formalin-fixed tumors were embedded in paraffin blocks and visualized by optical microscope (DM5500B, Leica). For TUNEL apoptosis staining, the fixed tumor sections were stained by the In Situ Cell Death Detection Kit (Roche Applied Science) according to the manufacturer's protocol. Hoechst 33342 was used for nuclear nuclear counterstaining. The stained tumor slides were observed by fluorescence microscope (IX71, Olympus).

HAase = assay: In vitro HAase-mediated TRAIL release and CD spectra; assay type: physicochemical; conditions: TRAIL released from Gelipo versus native TRAIL
Protocol: 500 μL of rhodamine-labeled TRAIL-loaded Gelipo (r-TRAIL-Gelipo) was incubated with 500 μL of HAase (1 mg/mL) at pH 6.5 in a 37° C. water bath. At prearranged time intervals, free r-TRAIL in the filtrate was harvested using centrifugal filters (30K MWCO) (Millipore). The fluorescence intensity of r-TRAIL was determined at 585 nm with an excitation wavelength of 552 nm by a microplate reader (Infinite M200 PRO, Tecan). Additionally, the far-UV CD spectra of the native TRAIL and the released TRAIL from TRAIL Gelipo were obtained using a Circular Dichroism Spectrometer (Aviv).

MDA-MB-231 cells = assay: Cell apoptosis assay (Annexin V-FITC, TUNEL), Example 2; assay type: cell-based, human; conditions: 12 h
Protocol: Apoptosis of MDA-MB-231 cells was detected using the Annexin V-FITC Apoptosis Detection Kit (BD Biosciences) and APO-BrdU TUNEL Assay Kit (Life Technologies), respectively. The cells (1×10^5 cells/well) were seeded in 6-well plates and cultured for 48 h. For Annexin V-FITC assay, the cells were incubated with different formulations for 12 h, including free TRAIL (2 or 20 ng/mL), TRAIL-Gelipo (20 ng/mL) with or without HAase-treatment, Dox-R8H3-L (100 ng/mL), TRAIL/Dox-Gelipo (2 ng/mL TRAIL, 100 ng/mL Dox) with HAase-treatment. For TUNEL assay, the cells were incubated with free TRAIL (2 ng/mL), Dox-R8H3-L (100 ng/mL) and TRAIL/Dox-Gelipo (2 ng/mL TRAIL, 100 ng/mL Dox) with HAase-treatment for 20 h, respectively. The following procedures were performed in accordance with the manufacturers' protocols. Finally, for Annexin V-FITC assay, the cells were analyzed by flow cytometry (BD FACSCalibur), while for TUNEL assay, the cells were observed by fluorescence microscope (IX71, Olympus).

[2] = 20 ng/mL TRAIL, Annexin V-FITC/PI

Molecule | Tumor growth compared with saline [1] | Secondary structure of released TRAIL (CD spectrum) (HAase) | Apoptosis ratio (MDA-MB-231 cells; 2 ng/mL TRAIL) [%] | Apoptosis ratio (MDA-MB-231 cells; [2]) [%] | Viability (MDA-MB-231 cells; [2]) [%]
COc1cccc2c1C(=O)c1c(O)c3c(c(O)c1C2=O)C[C@@](O)(C(=O)CO)C[C@@H]3O[C@H]1C[C@H](N)[C@H](O)[C@H](C)O1 [Dox solution, doxorubicin] | remarkably suppressed |  |  |  | 
free TRAIL: His-ILZ-TRAIL (residues 114-281) produced in E. coli; TNF-related apoptosis-inducing ligand |  | no noticeable conformational changes in the secondary structure | 36.48 | 51.71 | 32.30
